Experimental data published in patent US20120129897A1, “BIS HETEROARYL INHIBITORS OF PRO-MATRIX METALLOPROTEINASE ACTIVATION” (priority 2010, published 2012).

Target: T1, proMMP9 (Homo sapiens, UniProt P14780)
T1 construct: endogenous in cells; host or cells: HFL-1 (ATCC CCL-153), TNFα and neutrophil elastase added
Assay: Activation of proMMP9 by human fetal lung fibroblast (HFL-1) cultures (Western blot)
Assay type: cell-based
Settings: for Signal of 80 kD band (INT*mm^2): pAb-1246
Protocol: Compound-α was assessed additionally for ability to block the maturation of proMMP9 to active MMP9 in cultures of human fetal lung fibroblasts (HFL-1, American Type Culture Collection #CCL-153). Unlike rat synoviocytes, HFL-1 cells were unable to process proMMP9 to the active form without addition of neutrophil elastase. […] Rather, the function of elastase in this assay may be to inactivate tissue inhibitors of matrix metalloproteinases (TIMPs) that repress endogenous pathways of MMP9 activation (Am J Respir Crit Care Med; 1999; 159:1138-46).
HLF-1 were maintained in monolayer culture in DMEM with 10% FCS and were used between passage numbers 5-15. HLF-1 were embedded in collagen gels as described for rat SCW synoviocytes (vida supra). Half mL gels containing 0.4 million cells were dislodged into wells of 12 well Costar plates containing 1 mL/well of DMEM adjusted to contain 0.05% BSA and 100 ng/mL human TNFα (R&D Systems Cat #210-TA/CF). After overnight culture (37° C. and 5% CO2) wells were adjusted to contain an additional 0.5 mL of DMEM containing 0.05% BSA and with or without 13.2 μM Compound-α (final concentration was 3.3 μM Compound-α). Next, cultures were adjusted to contain 30 nM human elastase (Innovative Research). The plates were cultured an additional 72 hrs, at which time MMP9 secreted into the conditioned media was bound to gelatin-sepharose and evaluated by Western blot analysis as described for the rat synoviocyte cultures (vida supra). mAb-51/82 detected three forms of MMP9 in HFL-1 cultures.
A second experiment was performed to determine if the 80 kD form was mature active MMP9 and to determine the potency of Compound-α as an inhibitor of MMP9 maturation in this assay. HFL-1 cells embedded in collagen gels were cultured as described above in the presence of TNFα overnight and the cultures were then adjusted to contain 30 nM elastase and graded concentrations of Compound-α for an additional 72 hrs at which time MMP9 secreted into the conditioned media was bound to gelatin-sepharose and evaluated by Western blot analysis for active MMP9 using pAb-1246 raised against the N-terminal neoepitope of active MMP9 (Table 5). In the absence of Compound-α, pAb-1246 readily detected MMP9 with an electrophoretic mobility of approximately 80 kD. […] Inhibition occurred over a dose range with an IC50 of approximately 0.3 μM Compound-α.

[1] = 3.3 μM, 30 nM elastase, final 72 hrs, mAb-L51/82

T1 sequence (P14780 20-707 limits assumed): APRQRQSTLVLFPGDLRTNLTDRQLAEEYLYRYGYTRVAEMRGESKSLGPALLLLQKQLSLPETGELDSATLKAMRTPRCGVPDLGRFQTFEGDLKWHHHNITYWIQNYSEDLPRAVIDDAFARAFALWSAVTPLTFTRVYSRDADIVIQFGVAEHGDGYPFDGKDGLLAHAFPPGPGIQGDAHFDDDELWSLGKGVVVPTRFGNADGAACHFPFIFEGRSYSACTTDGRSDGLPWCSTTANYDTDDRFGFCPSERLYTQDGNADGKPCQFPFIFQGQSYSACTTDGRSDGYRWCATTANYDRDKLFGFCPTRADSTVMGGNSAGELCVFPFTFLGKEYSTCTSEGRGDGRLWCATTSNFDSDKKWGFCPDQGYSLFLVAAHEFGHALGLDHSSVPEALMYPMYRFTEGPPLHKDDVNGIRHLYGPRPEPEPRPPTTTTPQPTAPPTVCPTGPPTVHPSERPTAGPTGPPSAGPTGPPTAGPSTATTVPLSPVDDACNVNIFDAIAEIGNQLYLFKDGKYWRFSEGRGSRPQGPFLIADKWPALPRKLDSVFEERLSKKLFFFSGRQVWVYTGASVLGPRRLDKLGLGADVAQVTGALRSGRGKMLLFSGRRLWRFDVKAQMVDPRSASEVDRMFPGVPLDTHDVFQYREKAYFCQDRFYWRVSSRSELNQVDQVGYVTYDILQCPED

- Signal of 80 kD band (INT*mm^2) (0.12 μM, 30 nM elastase, final 72 hrs): 168211 INT*mm^2
- Signal of 80 kD band (INT*mm^2) (0.37 μM, 30 nM elastase, final 72 hrs): 45996 INT*mm^2
- Signal of 80 kD band (INT*mm^2) (1.1 μM, 30 nM elastase, final 72 hrs): 1747 INT*mm^2
- Percent of total signal, 80 kD [1]: 7%
- Percent of total signal, 86 kD [1]: 47%
- Percent of total signal, 100 kD [1]: 46%
- Signal (INT*mm^2), 80 kD [1]: 6092 INT*mm^2
- Signal (INT*mm^2), 86 kD [1]: 43147 INT*mm^2
- Signal (INT*mm^2), 100 kD [1]: 42107 INT*mm^2
- Signal (INT*mm^2), Total [1]: 91346 INT*mm^2
- Signal of 80 kD band (INT*mm^2) (3.3 μM, 30 nM elastase, final 72 hrs): 152 INT*mm^2
- Signal of 80 kD band (INT*mm^2) (10 μM, 30 nM elastase, final 72 hrs): 0 INT*mm^2
SMILES: Cc1nc(C)c(-c2csc(Nc3cc(S(N)(=O)=O)ccc3OC(C)C)n2)s1 [Compound-α, 3-(2′,4′-Dimethyl-[4,5′]bithiazolyl-2-ylamino)-4-isopropoxy-benzenesulfonamide.HBr]
- Processing of MMP9 forms by HFL-1 cells (3.3 μM, mAb-L51/82): the formation of the 80 kD form was suppressed
